Results: PubChem BioAssay (NCI)
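Where inhibition never reached the appropriate level, the endpoint shown equals the highest concentration tested. Otherwise, values were interpolated linearly from a five-concentration, 48-hour dose response in 96-well plates. TGI: total growth inhibition.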

Key:
Test in all cases: NCI tumour cell line growth inhibition, 48 h
[1] = tested on: DLD-1 colon
[2] = tested on: DMS 114 small cell lung
[3] = tested on: DMS 273 small cell lung
[4] = tested on: HOP-18 NSCLC
[5] = tested on: LXFL 529 NSCLC
[6] = tested on: RXF-631 renal
[7] = tested on: XF 498 CNS
[8] = tested on: P388 leukemia
[9] = tested on: P388/ADR leukemia
[10] = tested on: SN12K1 renal

Structure (SMILES)	TGI [1] [µM]	TGI [2] [µM]	TGI [3] [µM]	TGI [4] [µM]	TGI [5] [µM]	TGI [6] [µM]	TGI [7] [µM]	TGI [8] [µM]	TGI [9] [µM]	TGI [10] [µM]
O=C(CC1Sc2ccccc2NC1=O)Nc1ccc(Cl)cc1 (configuration not stated)	> 100	> 100	> 100	> 100	> 100	> 100	> 100	–	–	–
O=C1C=CC(=O)c2c(O)c(N3CCN(CCOCCO)CC3)c(Cl)c(O)c21	0.401	–	2.25	2.73	0.45	–	1.88	–	–	–
O=C1C=CC(=O)c2c(Cl)ccc(O)c21	27.6	33.6	25.4	33.4	–	–	32.7	3.84	1.96	> 55.2
C#CCC1(C(=O)OCC)C(=O)c2ccccc2N(C)C1=O (configuration not stated)	> 100	> 100	> 100	> 100	> 100	> 100	95.9	–	–	–
CC1(C2CCC3(C)OC3C2)CO1 (configuration not stated)	> 100	> 100	> 100	> 100	> 100	> 100	> 100	–	–	–
CC(=O)O[C@H]1CC[C@@]2(C)[C@H](CC[C@@H]3[C@@H]2CC[C@]2(C)[C@@H](c4ccc(=O)oc4)C[C@H]4O[C@]342)C1	7.34	1.03	1.47	9.72	–	–	3.27	125	125	1.83
CC(=O)CC(=O)CCC(=O)O	> 100	> 100	> 100	> 100	–	–	> 100	–	–	–
